Legend:
[1] = tested on: human aortic smooth muscle cells; experiment: Ascorbic acid scavenging of free radicals to increase cell survival, MTS assay; type: cell-based; settings: 50 mg/L ascorbic acid, 0.15% (w/v) Irgacure 2959, 5 min UV, 3 days
Description: The efficiency of the antioxidant, ascorbic acid, was evaluated in scavenging the free radicals in an effort to increase cell survival. HASMCs were exposed to 0.15% (w/v) solution of Irgacure 2959 in complete media supplemented with varying concentrations of ascorbic acid (0-200 mg/L). After incubating for 30 min, the cells were exposed to 5 min of UV light, and cell survival was quantified after 3 days. To evaluate the effect of added antioxidants on the gelation time, the gelation times (i.e., the time required for the materials to form a gel) were determined using three methods on 96-well plates. […] Then, the solution was monitored at that this specific wavelength AQ3 (610 nm) over a time course. The result was graphed as function of time, and the gelation time was defined as the time that had the highest changes in the absorbance intensities.
(§1) After the experiments, the cell survival was quantified using the MTS assay (CellTiter 961 Aqueous One Solution Cell Proliferation Assay, Promega) following the manufacturer's instructions. The cells were incubated with the MTS reagent for 4 h, after which 200 μL of the solution was transferred to 96-well plates, and absorbance was read at 490 nm using a microplate reader (VMax, Molecular Devices). Relative cell survival was obtained by dividing the absorbance reading of a cell sample by the mean absorbance value of the control.

[2] = tested on: human aortic smooth muscle cells; experiment: Cytotoxic effects of photoinitiator concentrations, MTS assay; type: cell-based; settings: no UV, 3 days
Description: (§2) Human aortic smooth muscle cells (HASMC) were cultured in complete medium consisting of Dulbecco's modified Eagle medium supplemented with 10% fetal bovine serum and 1% penicillin-streptomycin (Invitrogen, Carlsbad, Calif.). Upon 80-90% confluency, the cells were passaged or used for experiments. For all experiments, the cells were seeded in 24-well plates (Corning, Corning, N.Y.) at a density of 7000 cells per well. Following seeding, the cells were incubated at 37 °C and 5% CO2 in a humid environment for 2 days to allow cellular attachment and growth. After 2 days, the HASMCs were exposed to varying concentrations of the photoinitiator Irgacure 2959 (Ciba Specialty Chemicals), and/or UV exposure.
To evaluate the cytotoxic effects of photoinitiator concentrations on HASMCs, the cells were seeded and cultured as described earlier. Irgacure 2959 was directly dissolved in complete media to obtain final concentrations of 0.01%, 0.02%, 0.04%, 0.08%, and 0.16% (w/v). These photoinitiator concentrations were well within the range required for photopolymerization in a short period of time. […] These solutions were then sterilized using 0.2-μm syringe filters before they were added to the HASMCs. The control wells consisted of cells incubated with photoinitiator-free complete media. After the addition of the photoinitiator, the cells were incubated for 3 days, and then cell survival was determined using MTS assays. The cell survival for the controls was determined to be 1±0.09. […] Upon increasing the photoinitiator concentrations above 0.02% (w/v), a statistically significant decrease was noticed in the relative cell survival.
as §1

[3] = tested on: human aortic smooth muscle cells; experiment: Combined effects of photoinitiator and UV exposure on cell survival, MTS assay; type: cell-based; settings: 3 days
Description: as §2
The cellular damage due to the combined effects of photoinitiator and UV exposure was evaluated. Briefly, the HASMCs were seeded onto 24-well plates and allowed to grow for 2 days. Irgacure 2959 solutions with final concentrations of 0.01%, 0.015%, 0.04%, and 0.08% (w/v) in complete media were prepared. After adding these solutions, cells were incubated for 30 min to allow for the mixing of the photoinitiator. The well plates were then exposed to 1, 3, and 5 min of UV light. Wells containing cells not exposed to either UV light or photoinitiator solution served as controls for this experiment. Cell samples were incubated for 3 days before analyzing the cell survival. […] The cell survival for the controls was determined to be 1±0.09.
as §1

NIH/3T3 fibroblast cells = settings: concentrations 0.05% (w/w); cited from earlier work

SMILES | relative cell survival compared to samples without ascorbic acid [1] | relative cell survival ([2]; 0.01% (w/v)) | relative cell survival ([2]; 0.02% (w/v)) | relative cell survival ([2]; 0.16% (w/v)) | cell survival ([2]; below 0.02% (w/v)) | relative cell survival ([3]; 0.01% (w/v), 1, 3 and 5 min UV) | relative cell survival ([3]; 0.015% (w/v), 1, 3 and 5 min UV) | relative cell survival ([3]; 0.04% (w/v), 1 min UV) | relative cell survival ([3]; 0.04% (w/v), 3 min UV) | relative cell survival ([3]; 0.04% (w/v), 5 min UV) | fibroblast survival (NIH/3T3 fibroblast cells)
O=C1O[C@H]([C@@H](O)CO)C(O)=C1O [ascorbic acid] | significantly improve the relative cell survival rates | – | – | – | – | – | – | – | – | – | –
CC(C)(O)C(=O)c1ccc(OCCO)cc1 [Irgacure 2959, 2-hydroxy-1-[4-(2-hydroxyethoxy)phenyl]-2-methyl-1-propanone] | – | 1.03±0.10 | 0.85±0.09 | 0.25±0.01 | no significant decrease in cell survival | did not show any statistically significant decrease in relative cell survival | did not show any statistically significant decrease in relative cell survival | 0.76±0.05 | 0.74±0.04 | 0.67±0.05 | does not affect fibroblast survival

Source: patent US20110171309A1, “Compositions and Methods for Composite Nanoparticle Hydrogels” (Board of Regents, The University of Texas System, priority 2008, published 2011)
